Measured values published in article PMC12848680, “Microbial Cross-Talk: Unlocking the Cytochalasin Diversity from a Termite-Associated Xylaria” (JACS Au, 2025).
Values after ≈ are worked out from the molar mass of the structure shown. Where two headings read alike, the source gives them in different places.

Columns and labels:
[1] = tested on: Staphylococcus aureus Newman; assay: Antibacterial activity against S. aureus Newman; format: cell-based; settings: Table S22
[2] = tested on: CHO-K1 (chinese hamster ovary cells); assay: Cytotoxicity assay (MTT, 5 d) on CHO-K1; format: cell-based; settings: Cricetulus griseus, CHO-K1, 120 h
Protocol: (§1) Cytotoxicity assay: A549 (human lung carcinoma cell line; ACC 107) and CHO-K1 (chinese hamster ovary cells; ACC 110) were obtained from the German Collection of Microorganisms and Cell Cultures (DSMZ) and cultured under the conditions recommended by the depositor. Cells were propagated in Dulbeccos’s Modified Eagle’s Medium (DMEM) and Ham’s F12 medium, respectively, supplemented with 10% fetal bovine serum (FBS), and seeded at 6×10^3 cells per well of 96-well plates in 120 μL of complete medium. After 2 h of equilibration (37 °C, 5% CO2), the cells were treated with a serial dilution of cytochalasins in 60 µL growth medium. Cytochalasins, doxorubicin as reference, as well as the solvent control were tested as duplicates in two independent experiments. After 5 d of incubation (37 °C, 5% CO2), a total of 20 μL of 5 mg/ml MTT (thiazolyl blue tetrazolium bromide) in phosphate -buffered saline (PBS) were added to each well […]
(§2) and the cells were further incubated for 2 h at 37 °C before the supernatant was discarded.
(§3) Subsequently, the cells were washed with 100 μL of PBS and treated with 100 μl of 2-propanol/10 N HCl (250:1) to dissolve formazan granules. Cell viability was measured as percentage relative to the respective solvent control by measuring the absorbance at 570 nm using a microplate reader (Tecan Infinite M200Pro). GraphPad Prism (version 10.0.3, GraphPad, Boston, MA, USA) was used for sigmoidal curve fitting to determine the IC50 values.

in vitro [3] = format: in vitro ADME, mouse; settings: for microsomal CLint: C57BL/6, mouse, microsomes; for half-life: mouse, read-out: Mouse liver microsome t1/2; for half-life / Mouse liver microsome t1/2: 1 μM compound, 0.5 mg/mL pooled C57BL/6 microsomes
Protocol: Assays in liver microsomes: For metabolic stability, the compound (1 μM) was incubated with 0.5 mg/mL pooled mouse (C57BL/6) microsomes (Xenotech, Kansas City, USA), 2 mM NADPH, 10 mM MgCl2 at 37 °C for 120 min on a microplate shaker. The metabolic stability of testosterone, verapamil and ketoconazole were determined in parallel to confirm the enzymatic activity of mouse/rat liver microsomes. The incubation was stopped after defined time points by precipitation of aliquots of the incubation mixture with 2 volumes of cold internal standard solution (15 nM diphenhydramine in 10% methanol/acetonitrile). Samples were stored on ice until the end of the incubation and precipitated protein was removed by centrifugation (15 min, 4 °C, and 4,000 g). Concentration of the remaining test compound at the different time points was analyzed by HPLC-MS/MS (Vanquish Flex coupled to a TSQ Altis Plus, Thermo Fisher, Dreieich, Germany) and used to determine half-life (t1/2). […]

[4] = tested on: A549 (human lung carcinoma cell line); assay: Cytotoxicity assay (MTT, 5 d) on A549; format: cell-based; settings: for IC50: Homo sapiens, A549, 120 h, MTT, 5 d incubation; for Cytotoxic activity against A549 (in words): positive control doxorubicin
Protocol: as §1, §2, §3

in vitro [5] = format: in vitro ADME, mouse; settings: 1 μM compound, pooled CD-1 mouse plasma, read-out: Mouse plasma t1/2
Protocol: Plasma stability assays: To determine stability in plasma, the compound (1 μM) was incubated with pooled CD-1 mouse plasma (Neo Biotech, Nanterre, France). Samples were taken by mixing aliquots with 4 volumes of cold internal standard solution (12.5 nM diphenhydramine in 10% methanol/acetonitrile). The plasma stability of procain, propantheline and diltiazem were determined in parallel to confirm the enzymatic activity. Samples were stored on ice until the end of the incubation and precipitated protein was removed by centrifugation (15 min, 4 °C, 4,000 g, two centrifugation steps). Concentration of the remaining test compound at the different time points was analyzed by HPLC-MS/MS (Vanquish Flex coupled to a TSQ Altis Plus, Thermo Fisher, Dreieich, Germany). […]

E. coli ΔacrB (JW0451-2) = assay: Antibacterial activity against E. coli ΔacrB; format: cell-based; settings: Escherichia coli, read-out: E. coli ΔacrB (JW0451-2) MIC
[6] = Table S22, intrinsic clearance calculated from microsomal metabolism data
[7] = Table 1, intrinsic clearance from microsomal metabolism data

## CC1CC=CC2C3OC3(C)C(C)C3C(Cc4cccc(Br)c4)NC(=O)C23C(O)C2OC2C(C)(O)C1=O (stereo not shown) [Compound 19, m-bromo-deacetyl-19,20-epoxycytochalasin Q]
[1]
  MIC: > 64 µg/mL
[2]; Table S22, 5 d incubation
  IC50: 0.63 ± 0.24 µg/mL (≈ 1.12 µM)
In vitro [3]; [6]
  microsomal CLint: 60 ± 4 µL/min/mg
In vitro [3]; Table S22
  half-life: 0.385 ± 0.025 h
[4]; Table S22
  IC50: > 37 µg/mL
In vitro [5]; Table S22
  half-life at 1 μM: > 4 h
E. coli ΔacrB (JW0451-2)
  MIC: > 64 µg/mL

## CC1CC=CC2C3OC3(C)C(C)C3C(Cc4ccccc4Br)NC(=O)C23C(=O)C2OC2C(C)(O)C1=O (stereo not shown) [Compound 20, o-bromo-19,20-epoxy-21-oxocytochalasin Q]
[1]
  MIC: > 64 µg/mL
[2]; Table S22, 5 d incubation
  IC50: 1.38 ± 0.04 µg/mL (≈ 2.47 µM)
In vitro [3]; [6]
  microsomal CLint: 234 ± 28 µL/min/mg
In vitro [3]; Table S22
  half-life: 0.1 ± 0.0117 h
[4]; Table S22
  IC50: 0.62 ± 0.04 µg/mL (≈ 1.11 µM)
In vitro [5]; Table S22
  half-life at 1 μM: > 4 h
E. coli ΔacrB (JW0451-2)
  MIC: > 64 µg/mL

## C[C@H]1C/C=C/[C@H]2[C@@H]3O[C@]3(C)[C@@H](C)[C@H]3[C@H](Cc4ccccc4Br)NC(=O)[C@]32C(=O)C[C@@H](O)[C@@](C)(O)C1=O [Compound 21, o-bromo-19-hydroxy-21-oxocytochalasin Q]
[1]
  MIC: > 64 µg/mL
[2]; Table S22, 5 d incubation
  IC50: 3.04 ± 0.18 µg/mL (≈ 5.42 µM)
In vitro [3]; [6]
  microsomal CLint: 124 ± 9 µL/min/mg
In vitro [3]; Table S22
  half-life: 0.187 ± 0.0133 h
[4]; Table S22
  IC50: 0.79 ± 0.24 µg/mL (≈ 1.41 µM)
In vitro [5]; Table S22
  half-life at 1 μM: > 4 h
E. coli ΔacrB (JW0451-2)
  MIC: > 64 µg/mL

## CC(=O)OC1C2OC2C(C)(O)C(=O)C(C)CC=CC2C(O)C(C)=C(C)C3C(CC(=O)O)NC(=O)C213 (stereo not shown) [Compound 22, xylachalasin A]
[1]
  MIC: > 64 µg/mL
[2]; Table 1, 5 d incubation
  IC50: > 37 µg/mL
In vitro [3]; [6]
  microsomal CLint: < 11.6 µL/min/mg
In vitro [3]; Table S22
  Mouse liver microsome t1/2: >2 h
In vitro [3]; Table 1, 120 min
  half-life: > 2 h
[4]; Table 1
  IC50: > 37 µg/mL
In vitro [5]; Table 1
  half-life at 1 μM: > 4 h
E. coli ΔacrB (JW0451-2)
  MIC: > 64 µg/mL

## CC(=O)OC1C(C)=C(C)C2C(Cc3ccccc3)NC(=O)C23C1C=CCC(C)C(=O)C(C)(O)C1OC1C3OC(C)=O (stereo not shown) [Compound 23, 7-acetyl-19,20-epoxycytochalasin C]
[1]
  MIC: > 64 µg/mL
[2]; Table 1, 5 d incubation
  IC50: 15.7 ± 3.05 µg/mL (≈ 27.7 µM)
In vitro [3]; [7]
  microsomal CLint: 231 ± 36 µL/min/mg
In vitro [3]; Table 1, 120 min
  half-life: 0.102 ± 0.0167 h
[4]; Table 1
  IC50: > 37 µg/mL
[4]
  Cytotoxic activity against A549 (in words): pronounced reduced activity
In vitro [5]; Table 1
  half-life at 1 μM: > 4 h
E. coli ΔacrB (JW0451-2)
  MIC: > 64 µg/mL

## CC(=O)OC1C2OC2C(C)(O)C(=O)C(C)CC=CC2C3OC3(C)C(C)C3C(Cc4ccccc4)N(C(C)=O)C(=O)C213 (stereo not shown) [Compound 24, N-acetyl-19,20-epoxycytochalasin Q]
[1]
  MIC: > 64 µg/mL
[2]; Table S22, 5 d incubation
  IC50: 3.06 ± 0.5 µg/mL (≈ 5.41 µM)
In vitro [3]; [6]
  microsomal CLint: 558 ± 58 µL/min/mg
In vitro [3]; Table S22
  half-life: 0.0417 ± 0.005 h
[4]; Table S22
  IC50: 0.72 ± 0.12 µg/mL (≈ 1.27 µM)
In vitro [5]; Table S22
  half-life at 1 μM: > 4 h
E. coli ΔacrB (JW0451-2)
  MIC: > 64 µg/mL

## C#CCCC1(CCC(=O)OC2C(C)=C(C)C3C(Cc4ccccc4)NC(=O)C34C2C=CCC(C)C(=O)C(C)(O)C2OC2C4OC(C)=O)N=N1 (stereo not shown) [Compound 25, 7-diazirin-19,20-epoxycytochalasin C]
[1]
  MIC: > 64 µg/mL
[2]; Table 1, 5 d incubation
  IC50: 14.2 ± 1.93 µg/mL (≈ 21.2 µM)
In vitro [3]; [7]
  microsomal CLint: 907 ± 388 µL/min/mg
In vitro [3]; Table 1, 120 min
  half-life: 0.0283 ± 0.01 h
[4]; Table 1
  IC50: 24.9 µg/mL (≈ 37.1 µM)
[4]
  Cytotoxic activity against A549 (in words): pronounced reduced activity
In vitro [5]; Table 1
  half-life at 1 μM: > 4 h
E. coli ΔacrB (JW0451-2)
  MIC: > 64 µg/mL

## C#CCCC1(CCC(=O)OC2C(=C)C(C)C3C(Cc4ccccc4)NC(=O)C34C2C=CCC(C)C(=O)C(C)(O)C2OC2C4OC(C)=O)N=N1 (stereo not shown) [Compound 26, 7-diazirin-19,20-epoxycytochalasin D]
[1]
  MIC: > 64 µg/mL
[2]; Table S22, 5 d incubation
  IC50: 7.02 ± 1.16 µg/mL (≈ 10.4 µM)
In vitro [3]; [6]
  microsomal CLint: 1020 ± 120 µL/min/mg
In vitro [3]; Table S22
  half-life: 0.0233 ± 0.00167 h
[4]; Table S22
  IC50: 10.3 µg/mL (≈ 15.3 µM)
In vitro [5]; Table S22
  half-life at 1 μM: > 4 h
E. coli ΔacrB (JW0451-2)
  MIC: > 64 µg/mL

## CC(=O)OC1C2OC2C(C)(O)C(=O)C(C)CC=CC2C(O)C3(C)OC3(C)C3C(Cc4ccccc4)NC(=O)C213 (stereo not shown) [Compound 27, 19,20-epoxycytochalasin N]
[1]
  MIC: > 64 µg/mL
[2]; Table 1, 5 d incubation
  IC50: 10.6 ± 1.42 µg/mL (≈ 19.6 µM)
In vitro [3]; [7]
  microsomal CLint: < 11.6 µL/min/mg
In vitro [3]; Table S22
  Mouse liver microsome t1/2: >2 h
In vitro [3]; Table 1, 120 min
  half-life: > 2 h
[4]; Table 1
  IC50: 0.84 ± 0.04 µg/mL (≈ 1.56 µM)
In vitro [5]; Table 1
  half-life at 1 μM: 2.22 ± 0.15 h
E. coli ΔacrB (JW0451-2)
  MIC: > 64 µg/mL
